Literature values, collected in patent US20190375786A1, “STABLE PEPTIDES AND METHODS OF USE THEREOF” (Fred Hutchinson Cancer Research Center, priority 2016, published 2019).
Positions of bridges follow the written chain, without caps; N, C: chain ends. Residues, ends and D or L forms follow the SMILES beside them.

Settings: oral administration; cited from earlier work

For `C[C@@H]1NC(=O)[C@@H]2CCCN2C(=O)[C@H](CC(N)=O)NC(=O)[C@@H]2CSSC[C@H](N)C(=O)N[C@H]3CSSC[C@H](NC1=O)C(=O)N[C@@H]([C@@H](C)O)C(=O)NCC(=O)N[C@H](C(=O)N[C@@H](Cc1ccc(O)cc1)C(=O)O)CSSC[C@H](NC(=O)[C@H](Cc1ccc(O)cc1)NC(=O)[C@H](CCC(=O)O)NC3=O)C(=O)N2` [linaclotide] (H-CCEYCCNPACTGCY-OH; disulfide 1-6, 2-10, 5-13), the “systemic absorption into the plasma” value is listed as “not significantly systemically absorbed”.
